# Measurements reported in ChEMBL document CHEMBL1201862, “PubChem BioAssay data set” (2004).
# Calls of active or inactive are those of the source.
# Assays:
# [1] = target: Sphingosine 1-phosphate receptor 2 (Homo sapiens, UniProt O95136); assay: Dose Response Cell Based Assay for Agonists of the S1P2 Receptor of Purchased Analogues. [Related pubchem assays: 729, 843, 854, 736 ]; type: functional
# [2] = target: T1, Neuropeptide Y receptor type 2 (Homo sapiens, UniProt P49146); assay: IC50 for human NPY-Y2 blockade – cell-based, counter-screen for NPY-Y1 antagonist project, dose response (AID 1278); type: functional
# T1 sequence (P49146 whole entry): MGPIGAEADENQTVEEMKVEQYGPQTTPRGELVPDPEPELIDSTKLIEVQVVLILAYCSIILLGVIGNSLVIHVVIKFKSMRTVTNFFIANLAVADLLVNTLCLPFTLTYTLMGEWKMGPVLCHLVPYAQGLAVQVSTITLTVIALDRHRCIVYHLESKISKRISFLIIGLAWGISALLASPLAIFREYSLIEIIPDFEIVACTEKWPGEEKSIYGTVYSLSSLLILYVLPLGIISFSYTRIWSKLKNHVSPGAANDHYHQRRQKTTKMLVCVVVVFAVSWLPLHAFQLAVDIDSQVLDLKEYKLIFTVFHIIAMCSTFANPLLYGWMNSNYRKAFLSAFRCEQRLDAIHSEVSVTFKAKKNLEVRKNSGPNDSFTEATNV
# [3] = target: T2, Neuropeptide Y receptor type 1 (Homo sapiens, UniProt P25929); assay: IC50 of human NPY-Y1 blockers – cell-based, dose response (AID 1277); type: functional
# T2 sequence (P25929 whole entry): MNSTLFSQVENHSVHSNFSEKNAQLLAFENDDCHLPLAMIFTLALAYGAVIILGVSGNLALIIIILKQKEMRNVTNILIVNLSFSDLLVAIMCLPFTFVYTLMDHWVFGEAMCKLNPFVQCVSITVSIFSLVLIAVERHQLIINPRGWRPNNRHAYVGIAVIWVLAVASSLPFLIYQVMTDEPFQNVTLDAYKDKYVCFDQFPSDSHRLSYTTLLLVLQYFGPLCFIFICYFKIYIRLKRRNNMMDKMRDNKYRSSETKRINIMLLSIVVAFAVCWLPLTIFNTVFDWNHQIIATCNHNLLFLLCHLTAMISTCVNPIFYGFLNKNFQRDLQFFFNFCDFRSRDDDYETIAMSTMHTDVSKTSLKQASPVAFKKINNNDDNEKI
# [4] = target: 5-hydroxytryptamine receptor 1E (Homo sapiens, UniProt P28566); assay: Counterscreen assay for S1P3 antagonists: Dose response cell-based high throughput screening assay to identify antagonists of the 5-Hydroxytryptamine Receptor Subtype 1E (5HT1E). [Related pubchem assays: 1429, 485 ]; type: functional
# 5-hydroxytryptamine receptor 1E, sequence (P28566 whole entry): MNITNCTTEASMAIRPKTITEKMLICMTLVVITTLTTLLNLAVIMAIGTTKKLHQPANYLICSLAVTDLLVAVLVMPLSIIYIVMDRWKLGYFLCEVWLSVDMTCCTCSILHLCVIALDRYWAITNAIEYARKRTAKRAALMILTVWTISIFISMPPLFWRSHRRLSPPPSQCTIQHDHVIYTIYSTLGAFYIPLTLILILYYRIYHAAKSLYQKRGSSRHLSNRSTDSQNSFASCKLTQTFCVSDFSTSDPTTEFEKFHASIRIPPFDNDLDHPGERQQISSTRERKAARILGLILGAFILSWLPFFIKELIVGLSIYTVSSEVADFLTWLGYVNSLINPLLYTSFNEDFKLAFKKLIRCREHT
# [5] = toxicity toward HepG2 liver cells – cell-based, plate reader, cherry-pick, antagonist series, cytotoxicity control, dose response (AID 743416); type: functional
# [6] = test system: Streptococcus; assay: GAS UMAA2166 growth inhibition – luminescence, BacTiterGlo, counter-screen for streptokinase expression inhibitor project, dose response (AID 1915); type: functional, organism-based;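 further: potency for reduction of bacterial viability or growth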
# [7] = blockers of bursicon-stimulated LGR2 cAMP reporter – cell-based, HEK293, CRE-luciferase reporter, cherry pick, set 2, dose response (AID 743343); type: functional;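 further: transfected cells were stimulated with diluted bursicon conditioned medium after compound addition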
# [8] = target: T3, Streptokinase A (Streptococcus pyogenes serotype M1, UniProt P10520); assay: viability-normalized secreted streptokinase activity reduction – plasminogen activation absorbance, OD405, dose response (AID 1914); type: functional, Streptococcus pyogenes M1 GAS;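 further: secreted streptokinase activity via plasminogen activation per viability signal from cell pellet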
# T3 sequence (P10520 whole entry): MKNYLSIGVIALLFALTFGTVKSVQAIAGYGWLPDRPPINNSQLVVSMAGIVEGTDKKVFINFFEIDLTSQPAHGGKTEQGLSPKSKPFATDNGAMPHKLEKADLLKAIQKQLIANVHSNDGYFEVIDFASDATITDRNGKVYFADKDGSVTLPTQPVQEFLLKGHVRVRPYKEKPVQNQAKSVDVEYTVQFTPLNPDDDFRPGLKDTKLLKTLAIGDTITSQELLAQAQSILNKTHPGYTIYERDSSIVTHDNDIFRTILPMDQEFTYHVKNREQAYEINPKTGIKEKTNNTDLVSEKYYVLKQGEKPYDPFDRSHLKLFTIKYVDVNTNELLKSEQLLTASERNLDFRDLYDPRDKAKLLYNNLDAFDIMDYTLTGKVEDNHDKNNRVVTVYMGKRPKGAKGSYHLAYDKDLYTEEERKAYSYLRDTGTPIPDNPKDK
# [9] = viability loss in HEK293 cells – cell-based, plate reader, cherry-picked samples, cytotoxicity control, dose response (AID 743446); type: functional
# [10] = target: Sphingosine 1-phosphate receptor 3 (Homo sapiens, UniProt Q99500); assay: Dose response cell-based high throughput screening assay for antagonists of the Sphingosine 1-Phosphate Receptor 3 (S1P3). [Related pubchem assays: 1429, 485 ]; type: functional
# Sphingosine 1-phosphate receptor 3, sequence (Q99500 whole entry): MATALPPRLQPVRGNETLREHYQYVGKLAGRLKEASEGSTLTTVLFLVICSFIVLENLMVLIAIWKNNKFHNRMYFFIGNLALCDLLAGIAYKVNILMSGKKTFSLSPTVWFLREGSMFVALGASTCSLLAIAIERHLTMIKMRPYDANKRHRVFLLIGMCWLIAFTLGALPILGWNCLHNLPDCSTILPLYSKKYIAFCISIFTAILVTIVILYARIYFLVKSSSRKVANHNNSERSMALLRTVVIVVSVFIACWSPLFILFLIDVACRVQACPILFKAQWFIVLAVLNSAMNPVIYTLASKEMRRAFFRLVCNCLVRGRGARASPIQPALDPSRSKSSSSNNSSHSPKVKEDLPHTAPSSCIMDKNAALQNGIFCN
# [11] = test system: Streptococcus sp. 'group A'; assay: Streptococcus pyogenes SK(-)GAS viability under kanamycin – luminescence, BacTiterGlo, confirmation, counter-screen for streptokinase expression inhibitor project, dose response (AID 1900); type: functional, organism-based
# [12] = A549 cell cytotoxicity, dose response, cytotoxicity control, plate reader, cherry-pick, antagonist series (AID 743412); type: functional, cell-based
# [13] = blockade of melanocortin 4 receptor signaling – cell-based, plate reader, cherry pick, counter-screen for LGR2 antagonist project, dose response (AID 743444); type: functional;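 further: transfected HEK 293 cells stimulated with alpha-MSH peptide; potency of inhibitors of the alpha-MSH evoked signal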
# [14] = target: Mucolipin-3 (Homo sapiens, UniProt Q8TDD5); assay: Dose response cell-based high-throughput screening assay for agonists of the transient receptor potential channel ML3 (TRPML3). [Related pubchem assays: 1526, 1424, 1448 ]; type: functional
# Mucolipin-3, sequence (Q8TDD5 whole entry): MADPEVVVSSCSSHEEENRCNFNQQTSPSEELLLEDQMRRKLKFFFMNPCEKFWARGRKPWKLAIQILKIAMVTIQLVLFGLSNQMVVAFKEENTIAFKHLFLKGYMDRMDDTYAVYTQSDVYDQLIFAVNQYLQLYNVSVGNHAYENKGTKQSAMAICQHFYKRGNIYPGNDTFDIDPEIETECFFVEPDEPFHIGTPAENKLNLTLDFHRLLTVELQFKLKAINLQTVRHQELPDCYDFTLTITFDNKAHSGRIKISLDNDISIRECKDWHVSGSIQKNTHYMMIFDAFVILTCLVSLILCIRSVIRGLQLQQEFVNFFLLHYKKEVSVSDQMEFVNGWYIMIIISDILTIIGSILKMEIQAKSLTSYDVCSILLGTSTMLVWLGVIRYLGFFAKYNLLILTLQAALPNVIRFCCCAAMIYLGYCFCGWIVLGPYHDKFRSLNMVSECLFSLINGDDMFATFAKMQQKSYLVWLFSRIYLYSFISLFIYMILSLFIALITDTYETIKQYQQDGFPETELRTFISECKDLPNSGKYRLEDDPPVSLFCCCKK
# [15] = target: Ion channel NompC (Danio rerio, UniProt Q7T1G6); assay: Fluorescence counterscreen assay for TRPML3 agonists: dose response cell-based high-throughput screening assay to identify agonists of the transient receptor potential channel N1 (TRPN1). [Related pubchem assays: 1526, 1424, 1448 ]; type: functional
# Ion channel NompC, sequence (Q7T1G6 whole entry): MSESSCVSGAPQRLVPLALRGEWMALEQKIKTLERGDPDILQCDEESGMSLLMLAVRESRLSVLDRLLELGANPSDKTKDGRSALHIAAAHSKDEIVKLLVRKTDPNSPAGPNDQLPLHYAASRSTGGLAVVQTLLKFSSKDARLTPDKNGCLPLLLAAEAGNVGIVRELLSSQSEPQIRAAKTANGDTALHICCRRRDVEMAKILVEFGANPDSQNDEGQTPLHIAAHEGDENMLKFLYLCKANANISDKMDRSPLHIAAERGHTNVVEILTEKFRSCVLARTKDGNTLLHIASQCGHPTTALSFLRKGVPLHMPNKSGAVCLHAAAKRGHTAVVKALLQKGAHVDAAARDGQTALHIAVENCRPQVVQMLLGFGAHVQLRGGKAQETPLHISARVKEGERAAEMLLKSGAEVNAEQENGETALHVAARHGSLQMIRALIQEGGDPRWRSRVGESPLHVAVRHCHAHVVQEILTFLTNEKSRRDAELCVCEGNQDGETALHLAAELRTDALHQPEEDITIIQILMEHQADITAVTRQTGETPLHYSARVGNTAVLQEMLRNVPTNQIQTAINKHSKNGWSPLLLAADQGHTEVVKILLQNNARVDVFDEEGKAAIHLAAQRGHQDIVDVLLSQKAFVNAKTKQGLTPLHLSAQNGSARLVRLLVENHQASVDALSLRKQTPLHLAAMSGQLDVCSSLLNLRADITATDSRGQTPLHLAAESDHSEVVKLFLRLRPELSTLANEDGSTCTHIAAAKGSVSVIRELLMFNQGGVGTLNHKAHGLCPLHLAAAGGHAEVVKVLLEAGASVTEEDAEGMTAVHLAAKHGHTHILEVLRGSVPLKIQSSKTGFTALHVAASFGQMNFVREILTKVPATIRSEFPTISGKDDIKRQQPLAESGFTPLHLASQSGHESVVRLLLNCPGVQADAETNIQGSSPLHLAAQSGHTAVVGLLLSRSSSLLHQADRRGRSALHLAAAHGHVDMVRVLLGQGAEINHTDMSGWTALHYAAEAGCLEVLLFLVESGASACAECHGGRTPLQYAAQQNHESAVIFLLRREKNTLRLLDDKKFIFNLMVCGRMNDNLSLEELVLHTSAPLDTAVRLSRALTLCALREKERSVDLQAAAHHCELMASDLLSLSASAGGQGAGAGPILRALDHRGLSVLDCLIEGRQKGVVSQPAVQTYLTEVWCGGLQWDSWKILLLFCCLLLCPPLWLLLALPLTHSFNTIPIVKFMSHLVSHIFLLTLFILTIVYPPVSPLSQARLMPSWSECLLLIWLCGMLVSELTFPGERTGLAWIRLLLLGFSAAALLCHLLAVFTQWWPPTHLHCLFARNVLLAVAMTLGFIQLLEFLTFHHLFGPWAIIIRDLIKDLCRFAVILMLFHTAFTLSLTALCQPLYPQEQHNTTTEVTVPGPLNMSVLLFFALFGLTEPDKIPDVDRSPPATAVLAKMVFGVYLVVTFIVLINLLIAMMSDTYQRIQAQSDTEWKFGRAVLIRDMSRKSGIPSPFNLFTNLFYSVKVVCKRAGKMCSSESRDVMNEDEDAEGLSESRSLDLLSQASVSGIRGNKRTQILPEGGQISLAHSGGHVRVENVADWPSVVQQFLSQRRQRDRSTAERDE
# Sphingosine 1-phosphate receptor 2, sequence (O95136 whole entry): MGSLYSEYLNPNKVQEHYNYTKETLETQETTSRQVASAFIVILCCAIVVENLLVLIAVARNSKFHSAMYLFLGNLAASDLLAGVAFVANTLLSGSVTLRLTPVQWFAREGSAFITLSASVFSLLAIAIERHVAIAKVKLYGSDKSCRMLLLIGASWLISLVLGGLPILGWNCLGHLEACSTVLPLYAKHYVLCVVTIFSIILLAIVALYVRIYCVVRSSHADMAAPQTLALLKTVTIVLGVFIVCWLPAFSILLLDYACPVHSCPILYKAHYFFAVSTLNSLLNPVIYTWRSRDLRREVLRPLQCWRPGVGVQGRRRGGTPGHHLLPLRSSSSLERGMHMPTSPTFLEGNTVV
smiles,measurement,setting,value
Cc1cc(C(=O)COC(=O)C2CCC2)c(C)n1Cc1ccccc1,EC50,[1],> 30 µM (not active)
COC(=O)[C@@]1(Cc2ccc(F)cc2)[C@H]2c3cc(C(=O)N4CCCC4)n(Cc4ccc(C(F)(F)F)nc4)c3C[C@H]2CN1C(=O)c1ccccc1,IC50,[2],> 35 µM (not active)
same,IC50,[3],> 35 µM (not active)
Cc1cccc(Cn2nc(C(C)(C)C)cc2C(=O)Nc2ccc(F)cc2)c1,IC50,[4],3.86 µM (active)
same,AC50,[5],> 52 µM (inactive)
same,EC50,[6],16.3 µM (active)
same,AC50,[7],14.6 µM (active)
same,EC50,[8],1.9 µM (active)
same,AC50,[9],8.76 µM (active)
same,IC50,[10],5.22 µM (active)
same,EC50,[11],7.66 µM (active)
same,AC50,[12],26.5 µM (active)
same,AC50,[13],26.4 µM (active)
Cc1cc(C)c(C(=O)c2ccc(C(=O)N(C(C)C)C(C)C)cc2)c(C)c1,EC50,[14],2.24 µM (active)
same,EC50,[15],> 29.9 µM (not active)
